The values that follow come from patent US20230069886A1, “AROMATIC SULPHONAMIDES DERIVATIVES THAT INHIBITS PDI A3, THEIR SYNTHESIS AND USE” (Uniwersytet Jagiellonski, priority 2020, published 2023).

The target of one data set is T1, PDI A3 (Homo sapiens, UniProt P30101).
T1 construct: purchased Mybiosource; host or cells: E. coli
T1 sequence (P30101 25-505): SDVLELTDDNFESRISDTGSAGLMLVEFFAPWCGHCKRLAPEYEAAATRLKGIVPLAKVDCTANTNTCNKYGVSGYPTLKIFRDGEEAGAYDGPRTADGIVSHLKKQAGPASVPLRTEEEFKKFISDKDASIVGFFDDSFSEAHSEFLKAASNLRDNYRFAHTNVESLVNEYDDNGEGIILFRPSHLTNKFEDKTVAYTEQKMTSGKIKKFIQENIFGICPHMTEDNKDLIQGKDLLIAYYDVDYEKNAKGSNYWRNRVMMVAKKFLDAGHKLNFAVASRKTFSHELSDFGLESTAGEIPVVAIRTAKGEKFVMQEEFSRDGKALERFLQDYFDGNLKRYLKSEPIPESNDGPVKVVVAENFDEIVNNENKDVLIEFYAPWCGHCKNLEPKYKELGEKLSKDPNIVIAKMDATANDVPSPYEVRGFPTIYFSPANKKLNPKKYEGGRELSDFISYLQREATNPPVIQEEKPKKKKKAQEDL
As to the kind of experiment: PDI A3 inhibition, insulin turbidimetric assay. It is filed as biochemical. The note with it: 10 ug/ml PDI A3, incubated 60 min at 37° C., turbidity at 650 nm; read-out: Inhibition of PDI A3 (EC 50). As for the experimental part: The inhibitory effects compounds of invention on activity of PDIA3 was assess based on the insulin turbidimetric assay. Enzymatic activity of PDIA3 was confirmed by measuring the turbidity increase at 650 nm due to insulin reduction. The assay mixture was prepared by addition 10 ug/ml PDI A3 (E. coli recombinant protein; Mybiosource), […] phosphate buffer (pH7.6), 1 mM EDTA, 0.087 mM DTT and with or without tested compound and was incubated for 60 min, at 37° C. Reaction was started by addition of insulin and DTT. Final concentration of insulin and DTT in assay mixture were 0.15 mMv and 0.174 mMv, respectively. Turbidity was detected at 650 nm against reference samples without PDJs. The measurements were performed at 650 nm using 120-s recordings.

A further data set relates to HT-1080. Nature of the data set: MTT antiproliferative assay, 48 h, HT-1080. Format: cell-based, human. The note with it: 48-hour exposition, read-out: Cytotoxicity, IC50, μM HT-1080. Here is the method: (§1) Anticancer activity of compounds of invention, PDI A3-inhibitors has been tested in vitro in classical antiproliferative assay in various cancer cells lines. Monolayer tumor cell lines MDA-MB-231 (human mammary breast adenocarcinoma), MCF-7 (human breast adenocarcinoma, estrogen-positive), HT-1080 (human fibrosarcoma) and Caco-2 (human colon adenocarcinoma) were cultured in standard medium DMEM (Dulbecco's modified Eagle's medium) (“Sigma”) supplemented with 10% foetal bovine serum (“Sigma”). About 2000-4000 cells per well (depending on line nature) were placed in 96-well plates and after 24 h compounds were added to the wells. Untreated cells were used as a control. The plates were incubated for 48 h, 37° C., 5% CO2. The number of surviving cells was determined using 3-(4,5-dimethylthiazol-2-yl)-2,5-diphenyltetrazolinium bromide (MTT). MTT-test: after incubating culture medium was removed and 200 μL fresh medium with 20 μL MTT (2 mg/mL in HBSS) was added in each well of the plate. After incubation (3 hr., 37° C., 5% CO2), the medium with MTT was removed and 200 μL DMSO were added at once to each sample. The samples were tested at 540 nm on Thermo Scientific Multiskan EX microplate photometer. The half-maximal inhibitory concentration (IC50) of each compound was calculated using Graph Pad Prism® 3.0.
Background: Tetrazolium dyes change colour on reduction, which living cells bring about.

The test system of another data set is CaCo-2. Nature of the data set: MTT antiproliferative assay, 48 h, Caco-2. The note with it: 48-hour exposition, read-out: Cytotoxicity, IC50, μM CaCo-2. Format: cell-based, human. Here is the method: as §1
A further data set relates to MDA-MB-231. As to the kind of experiment: MTT antiproliferative assay, 48 h, MDA-MB-231. It is filed as cell-based, human. Conditions: 48-hour exposition, read-out: Cytotoxicity, IC50, μM MDA-MB-231. Here is the method:
as §1

A further data set deals with MCF-7. As to the kind of experiment: MTT antiproliferative assay, 48 h, MCF-7. Format: cell-based, human. Conditions: 48-hour exposition, read-out: Cytotoxicity, IC50, μM MCF-7. Here is the method:
as §1

As usually defined, the IC50 is the concentration that inhibits the measured activity by half. In the case of “Methyl 1-(4-propylphenyl)sulfonylaziridine-2-carboxylate [Compound C-3304]”, the EC50 at PDI A3 is 190 µM. Further, the IC50 with HT-1080 was determined as 17 ± 3 µM; in the data set with CaCo-2, 10 ± 1 µM; with MDA-MB-231, 13 ± 1 µM; with MCF-7 it was 49 ± 1 µM.
